Source: ChEMBL document CHEMBL3112445, “Design and synthesis of prostate cancer antigen-1 (PCA-1/ALKBH3) inhibitors as anti-prostate cancer drugs” (Bioorg Med Chem Lett, 2014)
The source made the active and inactive calls. The rule behind the calls is not given here.

Assays:
[1] = test system: Mus musculus; experiment: Toxicity in human DU145 cells xenografted mouse model assessed as abnormal behavior at 32 mg/kg, sc administered daily for 6 days; format: organism-based, DU-145; set-up: dose 32 mg/kg, route subcutaneous; conditions: in vivo, 144 h
[2] = target: T1, Alpha-ketoglutarate-dependent dioxygenase alkB homolog 3 (Homo sapiens, UniProt Q96Q83); experiment: Inhibition of demethylase activity of PCA-1 (unknown origin) using 3-methyl cytosine oligo DNA as substrate after 1 hr by RT-PCR analysis
T1 sequence (Q96Q83 whole entry): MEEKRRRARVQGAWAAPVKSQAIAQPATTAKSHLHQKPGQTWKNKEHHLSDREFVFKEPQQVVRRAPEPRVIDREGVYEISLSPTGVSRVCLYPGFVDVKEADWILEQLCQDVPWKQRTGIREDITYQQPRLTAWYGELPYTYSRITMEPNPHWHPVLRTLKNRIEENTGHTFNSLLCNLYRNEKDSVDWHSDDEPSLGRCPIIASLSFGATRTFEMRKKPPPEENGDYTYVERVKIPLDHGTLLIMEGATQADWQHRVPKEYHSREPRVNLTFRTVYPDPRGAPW

[3] = test system: Mus musculus; experiment: Toxicity in human DU145 cells xenografted mouse model assessed as abnormality in organs at 32 mg/kg, sc administered daily for 6 days; format: organism-based, DU-145; set-up: dose 32 mg/kg, route subcutaneous; conditions: in vivo, 144 h
[4] = target: T2, Alpha-ketoglutarate-dependent dioxygenase alkB homolog 3 (Homo sapiens) (UniProt Q96Q83); experiment: Inhibition of demethylase activity of PCA-1 (unknown origin) using 3-methyl cytosine oligo DNA as […] after 1 hr by RT-PCR analysis
T2 sequence (whole entry): T1 sequence (Q96Q83 whole entry)

[5] = test system: DU-145; experiment: Antiproliferative activity against human DU145 cells at 10 uM after 7 days by 3-D agar-based WST-assay; format: functional; conditions: DU-145, 168 h
[6] = test system: DU-145; experiment: Antiproliferative activity against human DU145 cells at 1 uM after 48 hrs by 2-D dish-based WST-assay; format: functional; conditions: DU-145, 48 h
[7] = test system: DU-145; experiment: Antiproliferative activity against human DU145 cells at 1 uM after 7 days by 3-D agar-based WST-assay; format: functional; conditions: DU-145, 168 h
[8] = test system: DU-145; experiment: Antiproliferative activity against human DU145 cells at 10 uM after 48 hrs by 2-D dish-based WST-assay; format: functional; conditions: DU-145, 48 h
[9] = Initial plasma concentration in Sprague-Dawley rat serum at 0.5 mg/kg, iv; format: ADME, organism-based; set-up: dose 0.5 mg/kg, route intravenous
[10] = Oral bioavailability in Sprague-Dawley rat at 32 mg/kg; format: ADME, organism-based; conditions: in vivo
[11] = AUC (0 to 24 hrs) in Sprague-Dawley rat serum at 0.5 mg/kg, iv; format: ADME, organism-based; set-up: time < 24 hr, dose 0.5 mg/kg, route intravenous
[12] = AUC (0 to 24 hrs) in Sprague-Dawley rat serum at 32 mg/kg, po; format: ADME, organism-based; set-up: time < 24 hr, dose 32 mg/kg, route oral
[13] = test system: Mus musculus; experiment: Toxicity in human DU145 cells xenografted mouse model assessed as body weight at 32 mg/kg, sc administered daily for 6 days; format: organism-based, DU-145; set-up: dose 32 mg/kg, route subcutaneous; conditions: in vivo, 144 h
[14] = Cmax in Sprague-Dawley rat serum at 32 mg/kg, po; format: ADME, organism-based; set-up: dose 32 mg/kg, route oral
[15] = test system: DU-145; experiment: Anticancer activity against human DU145 cells xenografted in mouse assessed as tumor growth inhibition at 32 mg/kg, sc administered daily for 6 days; format: functional, organism-based; set-up: dose 32 mg/kg
[16] = target: T2, Alpha-ketoglutarate-dependent dioxygenase alkB homolog 3 (Homo sapiens); conditions: 10 uM
Description: Inhibition of PCA-1 (unknown origin) at 10 uM

[17] = Drug level in Sprague-Dawley rat serum at 32 mg/kg, po after 1 hr; format: ADME, organism-based; set-up: dose 32 mg/kg, route oral

Row | IC50 [2] [nM] | SMILES | also measured
1 | 630 | COc1ccc(Cc2c(C)[nH]n(-c3nc4ccccc4[nH]3)c2=O)cc1 | Activity [1]: Non-toxic; Activity [3]: Non-toxic
2 | 3100 | Cc1[nH]n(-c2nc3ccccc3[nH]2)c(=O)c1Cc1ccc(Cl)c(Cl)c1 | 
3 | 910 | Cc1ccc2[nH]c(-n3[nH]c(C)c(Cc4ccccc4Cl)c3=O)nc2c1 | 
4 | 480 | Cc1nn(-c2nc3ccccc3[nH]2)c(O)c1Cc1ccccc1 | inhibition at 10 µM [5]: 90%; inhibition at 1 µM [6]: 42%; inhibition at 1 µM [7]: 42%; inhibition at 10 µM [8]: 47%
5 | 4300 | COC(=O)Cc1c(C)[nH]n(-c2nc3ccccc3[nH]2)c1=O | 
6 | 3300 | Cc1ccc2[nH]c(-n3[nH]c(-c4ccccc4)c(C)c3=O)nc2c1 | 
7 | 670 | Cc1ccc2nc(-n3[nH]c(C)c(Cc4ccccc4)c3=O)[nH]c2c1 | C0 [9]: 430 ng/mL; bioavailability [10]: 7.2%; AUC(0-t) at 24 h [11]: 150 ng·h/mL; AUC(0-t) at 24 h [12]: 690 ng·h/mL; Activity [13]: Non-toxic; Cmax [14]: 350 ng/mL
8 | > 10000 | Cc1[nH]n(-c2nc3ccccc3[nH]2)c(=O)c1Cc1ccccc1Cl | 
9 | 600 | Cc1[nH]n(-c2nc3ccccc3[nH]2)c(=O)c1Cc1ccc(F)cc1 | 
10 | > 10000 | Cc1c(-c2ccccc2)[nH]n(-c2nc3ccccc3[nH]2)c1=O | 
11 | 3600 | Cc1cc(O)n(-c2nc3ccccc3[nH]2)n1 | 
12 | 550 | Cc1[nH]n(-c2nc3ccccc3[nH]2)c(=O)c1Cc1ccc(C(F)(F)F)cc1 | 
13 | 610 | Cc1[nH]n(-c2nc3cc(C(F)(F)F)ccc3[nH]2)c(=O)c1Cc1ccccc1 | inhibition at 10 µM [5]: 92%; inhibition at 1 µM [6]: 78%; inhibition at 1 µM [7]: 90%; inhibition at 10 µM [8]: 84%
14 | 2000 | Oc1c(-c2ccccc2)c(-c2ccccc2)nn1-c1nc2cc(Cl)ccc2[nH]1 | 
15 | 540 | Cc1[nH]n(-c2nc3ccccc3[nH]2)c(=O)c1Cc1cccc(Cl)c1 | 
16 | 5800 | Cc1ccc2[nH]c(-n3nc(-c4ccccc4)c(-c4ccccc4)c3O)nc2c1 | 
17 | 4100 | Cc1[nH]n(-c2nc3ccccc3[nH]2)c(=O)c1Cc1ccc(C(C)(C)C)cc1 | 
18 | 4000 | Cc1[nH]n(-c2nc3ccccc3[nH]2)c(=O)c1C | inhibition [16]: 76%; inhibition at 10 µM [8]: 0.8%
19 | > 10000 | Cc1[nH]n(-c2nc3ccccc3[nH]2)c(=O)c1Cc1ccc(Cl)cc1 | inhibition [4]: 46%
20 | 750 | Cc1[nH]n(-c2nc3ccccc3[nH]2)c(=O)c1Cc1ccc2ccccc2c1 | 
21 | 7200 | O=c1cc(-c2ccccc2)[nH]n1-c1nc2ccccc2[nH]1 | 
22 | 2600 | Cc1ccc2[nH]c(-n3[nH]c(C)c(C)c3=O)nc2c1 | inhibition at 10 µM [5]: 69%; inhibition at 1 µM [6]: -11%; inhibition at 1 µM [7]: 3.8%; inhibition at 10 µM [8]: 19%; concentration at 1 h [17]: 1080 ng/mL
23 | 4500 | Cc1[nH]n(-c2nc3cc(Cl)ccc3[nH]2)c(=O)c1Cc1ccccc1 | inhibition at 10 µM [5]: 87%; inhibition at 1 µM [6]: 86%; inhibition at 1 µM [7]: 84%
24 | 490 | Cc1[nH]n(-c2nc3cc(Br)ccc3[nH]2)c(=O)c1Cc1ccccc1 | 
25 | 15000 | Cc1[nH]n(-c2nc3ccccc3[nH]2)c(=O)c1CC(=O)O | 
26 | > 10000 | Cc1[nH]n(-c2nc3ccccc3[nH]2)c(=O)c1Cc1ccc(Cl)cc1Cl | inhibition [4]: 11%

Second part, the compound before the results:

Row | SMILES | IC50 [2] [nM] | also measured
27 | Cc1[nH]n(-c2nc3ccc(C(C)(C)C)cc3[nH]2)c(=O)c1Cc1ccccc1 | 640 | 
28 | Cc1[nH]n(-c2ccccc2)c(=O)c1C | > 10000 | inhibition [4]: 20%
29 | Cc1ccc2[nH]c(-n3[nH]c(C)c(Cc4ccc(Cl)cc4)c3=O)nc2c1 | 750 | inhibition at 10 µM [5]: 90%; inhibition at 1 µM [6]: -1%; inhibition at 1 µM [7]: 2.8%; inhibition at 10 µM [8]: 46%
30 | Cc1ccc(-c2ccc3[nH]c(-n4[nH]c(C)c(Cc5ccccc5)c4=O)nc3c2)cc1 | 2100 | 
31 | Cc1[nH]n(-c2nc3c(C)cccc3[nH]2)c(=O)c1Cc1ccccc1 | 5900 | 
32 | COc1ccc(Cc2c(C)[nH]n(-c3nc4ccc(C)cc4[nH]3)c2=O)cc1 | 680 | 
33 | Cc1ccc2[nH]c(-n3[nH]c(C)c(Cc4ccc(C(C)(C)C)cc4)c3=O)nc2c1 | 3700 | 
34 | Cc1[nH]n(-c2ccccn2)c(=O)c1C(=O)Nc1ccccc1 | 1700 | inhibition at 10 µM [8]: 25%
35 | Cc1[nH]n(-c2nc3cc(-c4ccc(Cl)cc4)ccc3[nH]2)c(=O)c1Cc1ccccc1 | 1500 | inhibition at 10 µM [5]: 100%; inhibition at 1 µM [6]: 70%; inhibition at 1 µM [7]: 91%; inhibition at 10 µM [8]: 63%
36 | Cc1[nH]n(-c2nc3ccccc3[nH]2)c(=O)c1Cc1ccc(-c2ccccc2)cc1 | 720 | 
37 | Cc1[nH]n(-c2ncccn2)c(=O)c1C | > 10000 | inhibition [4]: -4%
38 | Cc1[nH]n(-c2nc3c(C)cccc3[nH]2)c(=O)c1C | > 10000 | 
39 | Cc1ccc2[nH]c(-n3[nH]c(C)c(Cc4ccc(Cl)c(Cl)c4)c3=O)nc2c1 | 720 | 
40 | Cc1ccc2nc(-n3[nH]c(C)c(Cc4ccccc4)c3=O)[nH]c2c1C | > 10000 | 
41 | Cc1[nH]n(-c2nc3ccccc3s2)c(=O)c1C | > 10000 | inhibition [4]: -3%
42 | Cc1[nH]n(-c2nc3ccccc3n2C)c(=O)c1C | > 10000 | inhibition [4]: 21%
43 | Cc1ccc2[nH]c(-n3[nH]c(C)c(Cc4ccccc4)c3=O)nc2c1 |  | TGI [15]: Active; inhibition at 10 µM [5]: 81%; inhibition at 1 µM [6]: 35%; inhibition at 1 µM [7]: 34%; inhibition at 10 µM [8]: 54%
44 | Cc1ccc2[nH]c(-n3[nH]c(C)c(Cc4ccc(F)cc4)c3=O)nc2c1 | 780 | 
45 | Cc1ccc2nc(-n3[nH]c(C)c(Cc4ccc(-c5ccccc5)cc4)c3=O)[nH]c2c1 | 5300 | 
46 | O=c1c(Cc2ccccc2)c(-c2ccccc2)[nH]n1-c1nc2ccccc2[nH]1 | > 10000 | inhibition [4]: 2%
47 | Cc1[nH]n(-c2nc3ccccc3o2)c(=O)c1C | > 10000 | inhibition [4]: 0%
48 | Cc1ccc2nc(-n3[nH]c(C)c(Cc4ccc(C(F)(F)F)cc4)c3=O)[nH]c2c1 | 570 | 
49 | Cc1[nH]n(-c2ccccn2)c(=O)c1C | > 10000 | inhibition [4]: -4%
50 | Cc1[nH]n(-c2nc3cc(-c4ccccc4)ccc3[nH]2)c(=O)c1Cc1ccccc1 | 810 | 
